From patent publication US20230312587A1, “PTERIDINONE COMPOUNDS AND USES THEREOF” (Vertex Pharmaceutical Incorporated, priority 2018, published 2023)

system: β-catenin-TCF-mediated reporter transcription activity in Colo 205 cells; assay: Colo 205 reporter assay (TCF/LEF luciferase); format: cell-based; details: Homo sapiens, COLO 205, 5 h, Colo 205 TCF/LEF luciferase reporter, five hours after addition of compound; read-out: TCF reporter Colo205 IC50
Procedure, shortened: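 Luciferase signal from a TCF/LEF-driven reporter, stably integrated in Colo 205 colon cancer cells, was measured 5 h after compound addition.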

IC50 [µM] | Compound
0.3 to 1 | Cc1nc(N[C@H]2C[C@H](c3ccc(OC(F)(F)F)cc3)C2)nc2c1NC(=O)[C@H](C)N2C [Compound 506, (7S)-4,7,8-trimethyl-2-(((trans)-3-(4-(trifluoromethoxy)phenyl)cyclo-butyl)amino)-7,8-dihydropteridin-6(5H)-one]
1 to 5 | Cc1nc(N[C@H]2C[C@H](Oc3ccc(F)nc3)C2)nc2c1N(C)C(=O)[C@H](C)N2C [Compound 358, (7S)-2-((trans 3-((6-fluoropyridin-3-yl)oxy)cyclobutyl)amino)-4,5,7,8-tetramethyl-7,8-dihydropteridin-6(5H)-one]
< 0.3 | Cc1nc(N[C@H]2C[C@H](Oc3ccc(OC(F)(F)F)cc3)C2)nc2c1NC(=O)[C@H](C)N2C [Compound 326, (7S)-4,7,8-trimethyl-2-((trans-3-(4-(trifluoromethoxy)phenoxy)-cyclobutyl)amino)-7,8-dihydropteridin-6(5H)-one]
≥ 5 | Cc1nc(N[C@@H]2CCc3c2cnn3Cc2ccc(C(F)(F)F)nc2)nc2c1NC(=O)[C@H](C(C)C)N2C [Compound 520, (S)-7-isopropyl-4,8-dimethyl-2-(((R)-1-((6-(trifluoromethyl)pyridin-3-yl)methyl)-1,4,5,6-tetrahydrocyclopenta[c]pyrazol-4-yl)amino)-7,8-dihydropteridin-6(5H)-one]
0.3 to 1 | CC(=O)c1ccc(OC[C@H]2C[C@@H](Nc3nc(C)c4c(n3)N(C)[C@@H](C(C)C)C(=O)N4)C2)cn1 [Compound 696, (S)-2-((cis-3-(((6-acetylpyridin-3-yl)oxy)methyl)cyclobutyl)amino)-7-isopropyl-4,8-dimethyl-7,8-dihydropteridin-6(5H)-one]
< 0.3 | Cc1nc(NCc2cnn(Cc3ccc(F)cc3C#N)c2)nc2c1NC(=O)[C@H](C)N2C [Compound 64, (7S)-5-fluoro-2-((4-(((4,7,8-trimethyl-6-oxo-5,6,7,8-tetrahydropteridin-2-yl)amino)methyl)-1H-pyrazol-1-yl)methyl)benzonitrile]
0.3 to 1 | COc1cc(O[C@H]2C[C@H](Nc3nc(C)c4c(n3)N(C)[C@@H](C)C(=O)N4C)C2)ccc1F [Compound 373, (7S)-2-((trans-3-(4-fluoro-3-methoxyphenoxy)cyclobutyl)amino)-4,5,7,8-tetramethyl-7,8-dihydropteridin-6(5H)-one]
0.3 to 1 | CCOc1ccc(CCn2cc(CNc3nc(C)c4c(n3)N(C)[C@@H](C)C(=O)N4)cn2)cc1 [Compound 108, (7S)-2-(((1-(4-ethoxyphenethyl)-1H-pyrazol-4-yl)methyl)amino)-4,7,8-trimethyl-7,8-dihydropteridin-6(5H)-one]
≥ 5 | Cc1nc(NCc2nc(-c3ccccc3)cs2)nc2c1NC(=O)[C@H](C)N2C [Compound 59, (7S)-4,7,8-trimethyl-2-(((4-phenylthiazol-2-yl)methyl)amino)-7,8-dihydropteridin-6(5H)-one]
< 0.3 | Cc1nc(N[C@H]2C[C@@H](COc3ccc(F)c(F)c3F)C2)nc2c1NC(=O)[C@H](C)N2C [Compound 281, (7S)-4,7,8-trimethyl-2-((cis-3-((2,3,4-trifluorophenoxy)methyl)cyclobutyl)-amino)-7,8-dihydropteridin-6(5H)-one]
< 0.3 | Cc1nc(NCc2cnn(CC(=O)c3ccc(F)cc3)c2)nc2c1NC(=O)[C@H](C)N2C [Compound 91, (7S)-2-(((1-(2-(4-fluorophenyl)-2-oxoethyl)-1H-pyrazol-4-yl)methyl)amino)-4,7,8-trimethyl-7,8-dihydropteridin-6(5H)-one]
< 0.3 | C[C@H]1C(=O)Nc2cnc(NCc3ccc(Oc4ccc(F)cc4)nc3)nc2N1C [Compound 56, (7S)-2-(((6-(4-fluorophenoxy)pyridin-3-yl)methyl)amino)-7,8-dimethyl-7,8-dihydropteridin-6(5H)-one]
< 0.3 | Cc1nc(NCc2cnn(Cc3ccccc3)c2)nc2c1NC(=O)[C@H](C)N2C [Compound 53, (7S)-2-(((1-benzyl-1H-pyrazol-4-yl)methyl)amino)-4,7,8-trimethyl-7,8-dihydropteridin-6(5H)-one]
< 0.3 | Cc1cc(F)ccc1Cn1cc(CNc2nc(C)c3c(n2)N(C)[C@@H](C)C(=O)N3)cn1 [Compound 66, (7S)-2-(((1-(4-fluoro-2-methylbenzyl)-1H-pyrazol-4-yl)methyl)amino)-4,7,8-trimethyl-7,8-dihydropteridin-6(5H)-one]
< 0.3 | CCN1C(=O)[C@H](CCO)N(CC)c2nc(NCc3cnn(Cc4ccc(F)cc4)c3)ncc21 [Compound 38, (7S)-5,8-diethyl-2-(((1-(4-fluorobenzyl)-1H-pyrazol-4-yl)methyl)amino)-7-(2-hydroxyethyl)-7,8-dihydropteridin-6(5H)-one]
0.3 to 1 | CO[C@H](C)[C@H]1C(=O)Nc2c(C)nc(N[C@@H]3CC[C@H](Nc4cnc(C(F)(F)F)cn4)C3)nc2N1C [Compound 736, (S)-7-((R)—1-methoxyethyl)-4,8-dimethyl-2-(((1R,3S)-3-((5-(trifluoromethyl)pyrazin-2-yl)amino)cyclopentyl)amino)-7,8-dihydropteridin-6(5H)-one]
< 0.3 | COC1(C2C(=O)Nc3c(C)nc(NCc4cnn(Cc5cc(F)c(F)c(F)c5)c4)nc3N2C)CCC1 (stereo not drawn) [Compound 668, 7-(1-methoxycyclobutyl)-4,8-dimethyl-2-(((1-(3,4,5-trifluorobenzyl)-1H-pyrazol-4-yl)methyl)amino)-7,8-dihydropteridin-6(5H)-one]
< 0.3 | Cc1nc(NCc2cnn(Cc3cncc(C(F)(F)F)c3)c2)nc2c1NC(=O)[C@H](C)N2C [Compound 206, (7S)-4,7,8-trimethyl-2-(((1-((5-(trifluoromethyl)pyridin-3-yl)methyl)-1H-pyrazol-4-yl)methyl)amino)-7,8-dihydropteridin-6(5H)-one]
< 0.3 | Cc1nc(N[C@H]2C[C@@H](COc3ccc(Cl)nc3)C2)nc2c1NC(=O)[C@H](C(C)C)N2C [Compound 570, (S)-2-((cis-3-(((6-chloropyridin-3-yl)oxy)methyl)cyclobutyl)amino)-7-isopropyl-4,8-dimethyl-7,8-dihydropteridin-6(5H)-one]
1 to 5 | Cc1nc(N[C@H]2C[C@H](Nc3cnc(C(F)(F)F)cn3)C2)nc2c1NC(=O)[C@H](C)N2C [Compound 579, (S)-4,7,8-trimethyl-2-((trans-3-((5-(trifluoromethyl)pyrazin-2-yl)amino)cyclobutyl)amino)-7,8-dihydropteridin-6(5H)-one]
< 0.3 | Cc1nc(N[C@H]2C[C@@H](NC(=O)Nc3cc(F)c(F)cc3F)C2)nc2c1NC(=O)[C@H](C)N2C [Compound 477, 1-(2,4,5-trifluorophenyl)-3-(cis-3-(((S)-4,7,8-trimethyl-6-oxo-5,6,7,8-tetrahydropteridin-2-yl)amino)cyclobutyl)urea]
< 0.3 | Cc1nc(NCc2cnn(Cc3ccc(F)cc3O)c2)nc2c1NC(=O)[C@H](C)N2C [Compound 87, (7S)-2-(((1-(4-fluoro-2-hydroxybenzyl)-1H-pyrazol-4-yl)methyl)amino)-4,7,8-trimethyl-7,8-dihydropteridin-6(5H)-one]

same assay, conditions: Homo sapiens, COLO 205, 5 h, R-isomer at C2 (corresponding to C2 S-isomer); Colo 205 TCF/LEF luciferase reporter, 5 h; read-out: TCF reporter Colo205 IC50

IC50 [µM] | Compound
1 to 5 | CCC[C@@H]1C(=O)Nc2c(C)nc(NCc3cnn(Cc4ccc(C(F)(F)F)nc4)c3)nc2N1C [Compound I-1638]
0.3 to 1 | CCC[C@@H]1C(=O)N(C)c2cnc(NCc3cnn(Cc4ccc(F)cc4)c3)nc2N1C [Compound I-984]
